“And” between values parts separate entries of the source, which are not always exact repeats. Identical values can stand only once.
Experiments:
Assay type in all cases: biochemical
hCA I = hCA I (Homo sapiens, UniProt P00915); experiment: biochemical; settings: for Ki: Lineweaver–Burk plots, three concentrations
Description: (§1) CA isoenzymes (CA I and CA II) were purified using a Sepharose-4B-L tyrosine-sulphanilamide affinity chromatography. Activities of CA isoenzymes were determined according to method by Verpoorte et al.. […] The experimental procedure was given in detail in our previous papers. SSpectrophotometry-based Ellman’s method was used to test the compounds’ AChE inhibitory effects. Acetylthiocholine iodide (AChI) was used as a substrate of the reaction. 5,5-dithiobis(2-nitro-benzoic acid) (DTNB) was used for the determination of the AChE activities. An activity (%)-[Compound] graph was drawn to calculate the inhibition effects of the compounds on CAs and AChE. The IC50 values were obtained from activity (%) versus compounds plots. Three different concentrations were used to calculate Ki values. The Lineweaver–Burk plots were drawn, and calculations were realized as described.

hCA II = hCA II (Homo sapiens, UniProt P00918); experiment: biochemical; settings: for Ki: Lineweaver–Burk plots, three concentrations
Description: as §1

AChE = AChE (Electrophorus electricus, UniProt O42275); experiment: AChE inhibition (Ellman's method); settings: in terms of Ki value
AChE, sequence (O42275 24-633): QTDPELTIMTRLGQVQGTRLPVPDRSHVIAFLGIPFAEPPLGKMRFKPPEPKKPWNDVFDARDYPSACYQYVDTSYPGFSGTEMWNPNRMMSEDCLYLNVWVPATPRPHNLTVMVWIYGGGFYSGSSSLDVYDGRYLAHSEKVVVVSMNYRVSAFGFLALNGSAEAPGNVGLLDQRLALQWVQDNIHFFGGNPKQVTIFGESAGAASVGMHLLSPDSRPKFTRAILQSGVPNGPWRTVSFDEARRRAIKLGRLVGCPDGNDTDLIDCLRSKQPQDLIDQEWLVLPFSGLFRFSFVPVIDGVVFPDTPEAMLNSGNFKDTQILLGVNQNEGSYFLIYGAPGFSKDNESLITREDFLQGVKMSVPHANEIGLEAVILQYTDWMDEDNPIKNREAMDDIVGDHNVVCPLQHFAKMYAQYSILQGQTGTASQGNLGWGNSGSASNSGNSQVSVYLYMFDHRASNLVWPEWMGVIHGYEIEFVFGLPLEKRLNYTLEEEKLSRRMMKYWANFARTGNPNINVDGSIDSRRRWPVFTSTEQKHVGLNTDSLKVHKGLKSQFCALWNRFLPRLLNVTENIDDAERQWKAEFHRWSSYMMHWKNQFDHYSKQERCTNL
Description: as §1

hCA I, sequence (P00915 whole entry): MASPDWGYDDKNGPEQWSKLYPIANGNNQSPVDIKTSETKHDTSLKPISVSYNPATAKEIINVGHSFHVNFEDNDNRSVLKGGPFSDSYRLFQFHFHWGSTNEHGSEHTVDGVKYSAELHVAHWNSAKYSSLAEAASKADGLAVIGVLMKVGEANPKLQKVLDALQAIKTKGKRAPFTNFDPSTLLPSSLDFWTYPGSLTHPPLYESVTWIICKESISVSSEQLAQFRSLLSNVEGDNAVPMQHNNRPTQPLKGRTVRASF

COc1ccc(/C=C(\NC(=O)c2ccccc2)C(=O)Nc2ccc(S(=O)(=O)Nc3nccs3)cc2)cc1 [3d]
IC50 (hCA I): 22.4 nM | Ki (hCA I): 9.16 ± 0.46 nM | times more potent than AZA toward hCA I (hCA I; based on Ki values): 3.3 × | IC50 (hCA II): 21 nM | Ki (hCA II): 16.9 ± 3.76 nM | times more potent than AZA toward hCA II (hCA II; based on Ki values): 1.3 ×

COc1ccc(/C=C(\NC(=O)c2ccccc2)C(=O)Nc2ccc(S(=O)(=O)NC(C)=O)cc2)cc1 [3a]
IC50 (hCA I): 27.7 nM | Ki (hCA I): 17.6 ± 4.72 nM | times more potent than AZA toward hCA I (hCA I; based on Ki values): 1.7 × | IC50 (hCA II): 20.4 nM | Ki (hCA II): 18.7 ± 1.59 nM | times more potent than AZA toward hCA II (hCA II; based on Ki values): 1.2 ×

COc1ccc(/C=C(\NC(=O)c2ccccc2)C(=O)Nc2ccc(S(=O)(=O)NC(=N)N)cc2)cc1 [3b]
IC50 (hCA I): 19.8 nM | Ki (hCA I): 29.7 ± 3.18 nM | IC50 (hCA II): 24.8 nM | Ki (hCA II): 12.6 ± 2.54 nM | times more potent than AZA toward hCA II (hCA II; based on Ki values): 1.8 ×

COc1ccc(C=C2N=C(c3ccccc3)OC2=O)cc1 [compound 2, 4-(4-methoxybenzylidene)-2-phenyloxazol-5(4H)-one]
IC50 (hCA I): 40.8 nM | Ki (hCA I): 50.3 ± 1.59 nM | IC50 (hCA II): 46.2 nM | Ki (hCA II): 62.5 ± 11.5 nM

COc1ccc(/C=C(\NC(=O)c2ccccc2)C(=O)Nc2ccc(S(=O)(=O)Nc3nccc(C)n3)cc2)cc1 [3f]
times more potent than 3e on AChE (AChE): 3.8 × | times more potent than 3g on AChE (AChE): 1.5 × | IC50 (hCA I): 28.9 nM | Ki (hCA I): 11.3 ± 1.7 nM | times more potent than AZA toward hCA I (hCA I; based on Ki values): 2.7 × | IC50 (hCA II): 24.8 nM | Ki (hCA II): 21.4 ± 3.47 nM

COc1ccc(/C=C(\NC(=O)c2ccccc2)C(=O)Nc2ccc(S(N)(=O)=O)cc2)cc1 [3c]
IC50 (hCA I): 20.4 nM | Ki (hCA I): 6.33 ± 0.51 nM | times more potent than AZA toward hCA I (hCA I; based on Ki values): 4.8 × | IC50 (hCA II): 30.1 nM | Ki (hCA II): 10.7 ± 0.98 nM | times more potent than AZA toward hCA II (hCA II; based on Ki values): 2.1 × and 2 × | times more potent than compound 2 on hCA II (hCA II; based on Ki values): 5.8 ×

COc1ccc(/C=C(\NC(=O)c2ccccc2)C(=O)Nc2ccc(S(=O)(=O)Nc3nc(C)cc(C)n3)cc2)cc1 [3g]
IC50 (hCA I): 21 nM | Ki (hCA I): 4.07 ± 0.38 nM | times more potent than 3e on hCA I (hCA I; based on Ki values): 2 × | times more potent than AZA toward hCA I (hCA I; based on Ki values): 7.5 × | times more potent than compound 2 on hCA I (hCA I; based on Ki values): 12.4 × | IC50 (hCA II): 26.7 nM | Ki (hCA II): 14.9 ± 3.1 nM | times more potent than AZA toward hCA II (hCA II; based on Ki values): 1.5 ×

COc1ccc(/C=C(\NC(=O)c2ccccc2)C(=O)Nc2ccc(S(=O)(=O)Nc3ncccn3)cc2)cc1 [3e]
IC50 (hCA I): 25.7 nM | Ki (hCA I): 8.02 ± 0.88 nM | times more potent than AZA toward hCA I (hCA I; based on Ki values): 3.8 × | IC50 (hCA II): 25.7 nM | Ki (hCA II): 37.2 ± 7.55 nM
